Data published in article PMC11406233 (Proceedings of the National Academy of Sciences of the …, 2024).
Read-outs that look alike come from different tables or passages of the source.

Legend:
[1] = test system: SCoV2^WK521A191T; design: species or system SARS-CoV-2; conditions: read-out: EC50 from cell-based assay
[2] = test system: SCoV2^WK521A191T; design: species or system SARS-CoV-2; conditions: read-out: EC50 from cell-based assay; remark: listed apart in the source
[3] = test system: rgSCoV2WT; assay: microbe, parasite or virus in culture; type: cell-based; conditions: Severe acute respiratory syndrome coronavirus 2, VeroE6/TMPRSS2, read-out: EC50±SD
[4] = test system: rgSCoV2E166V; type: cell-based, SARS-CoV-2
[5] = test system: rgSCoV2L50F/E166V; type: cell-based, SARS-CoV-2
[6] = test system: SCoV2^WK521WT + SCoV2^WK521A191T; type: cell-based, SARS-CoV-2
[7] = test system: SCoV2^WK521E166V; type: cell-based, SARS-CoV-2
[8] = molecular target: T1, M^proE166V (Severe acute respiratory syndrome coronavirus 2, UniProt P0DTD1, E3429V); type: biochemical, SARS-CoV-2
[9] = molecular target: T1, M^proE166V; type: binding, SARS-CoV-2
[10] = test system: SCoV2^WK521WT + SCoV2^WK521E166V; type: cell-based, SARS-CoV-2

Compound: COc1cccc2[nH]c(C(=O)N[C@@H](CC(C)C)C(=O)N[C@@H](C[C@@H]3CCNC3=O)C(=O)c3nc4ccccc4s3)cc12 [5h]
- EC50 [1]: > 100 µM
- EC50 [2]: 35 ± 0.08 µM
- EC50 [3]: 13.5 µM
- EC50 [4]: 13.5 ± 0.15 µM
- EC50 [5]: 13.4 ± 0.48 µM
- Pattern of replicability in CSRA [6]: SCoV2^WK521A191T predominated SCoV2^WK521 throughout all the concentrations tested

Compound: CC(C)(C)[C@H](NC(=O)C(F)(F)F)C(=O)N1C[C@H]2[C@@H]([C@H]1C(=O)N[C@@H](C[C@@H]1CCNC1=O)C(=O)c1nc3c(F)cccc3s1)C2(C)C [TKB245]
- Difference in the EC50 values of NIR and TKB245 [7]: 207 fold
- Factor of greater binding affinity to MproE166V than nirmatrelvir [8]: 6.8
- EC50 [3]: 0.78 µM
- EC50 [4]: 6.6 µM
- EC50 [5]: 11.4 µM
- Complex formation with MproE166V in crystallization [9]: TKB245 binds to M^proE166V
- SCoV2^WK521E166V population [10]: 100%
- SCoV2^WK521WT population [10]: 100%

Compound: CC(C)(C)[C@H](NC(=O)C(F)(F)F)C(=O)N1C[C@H]2[C@@H]([C@H]1C(=O)N[C@H](C#N)C[C@@H]1CCNC1=O)C2(C)C [nirmatrelvir, reference compound]
- EC50 [3]: 4.4 µM
